PubChem BioAssay AID1918998 (Molecular Pharmacology Branch, DTP, NCI, 2023)

Tested on: 521955-158-R2-J5-PDC complex spheroid growth
Test: Anticancer human tumor 521955-158-R2-J5-PDC patient-derived pancreatic carcinoma cell line growth inhibition [AhR]
Conditions: for IC50: curve of first compound; for viability, T/C: stronger effect = lower value
Excerpt: Multicellular complex tumor spheroid response to aryl hydrocarbon receptor antagonists in combination with a variety of drugs and investigational agents in selected tumor cell lines
The current study was undertaken to assess response to aryl hydrocarbon receptor antagonists in combination with standard-of-care drugs and investigational agents in solid tumor complex spheroid models. Complex spheroids include a stromal component modeled by human endothelial cells (HUVEC) and fibroblasts modeled by human mesenchymal stem cells (MSCs). The concentration ranges selected for each drug and investigational agent were based upon clinically achievable concentrations if the clinical Cmax of the agent was known.
Compounds. The drugs and investigational agents: BAY 2416964 (NSC825713), GNF351 (NSC835774), CH-223191 (NSC835775), CPI-455 (NSC825282), aza-TdCyd (NSC777586), decitabine (NSC127716), belinostat (NSC758774), entinostat (NSC756642), pevonedistat (NSC761192), tazemetostat (NSC777109), talazoparib (NSC765396), olaparib (NSC753686), selinexor (NSC780203), nedisertib (M3814, NSC802822), bortezomib (NSC756655), venetoclax (NSC766270), doxorubicin (NSC123127), elimusertib (BAY189344, NSC800525), ceralasertib (AZD6738, NSC777638), TAK-243 (NSC785004), alisertib (NSC759677), etoposide (NSC141540), topotecan (NSC609699), eribulin (NSC707389), gemcitabine (NSC613327), carboplatin (NSC241240), cisplatin (NSC119875), and SN-38 (NSC673596) were obtained from the National Cancer Institute (NCI) Developmental Therapeutics Program Chemical Repository (32). The FDA-approved anticancer drug set is available from the Developmental Therapeutics Program at https://dtp.cancer.gov/organization/dscb/obtaining/available plates.htm. […] The stock solutions were prepared in dimethyl sulfoxide (DMSO, Sigma-Aldrich, St. Louis, MO, cat. D2650), except for the platinum compounds which were prepared in saline (Quality Biological, Gaithersburg, MD, cat. 114-055-101), at 800-fold the tested concentration and stored at -70 degrees C prior to their use. All drugs and investigational agents were tested over a range starting from a high concentration at or near the clinical Cmax and decreasing in half-log increments. If the clinical Cmax for an agent had not been determined, the highest concentration tested was 10 microM (Table 1).
Cell Culture. All cells were maintained in an incubator at 37 degrees C and 5% CO2 with 95% humidity. The PDC lines were cultured according to standard operating procedures established by the NCI PDMR (https://pdmr.cancer.gov). Briefly, all PDCs were thawed and cultured in Matrigel-coated flasks prepared with a working solution of 1X Ham's F-12 nutrient mix, without supplementation (Invitrogen, Waltham, MA, cat. 11765054), 100 U/mL penicillin-streptomycin (Invitrogen, cat. 15140122), and 2.5% Matrigel (Corning Inc., Corning, NY, cat. 354248) for the first three passages. All PDCs were cultured in complete DMEM/F-12 media containing advanced DMEM/F-12 (Invitrogen, cat. 12634028), 4.9% defined fetal bovine serum, heat inactivated (HyClone Laboratories Inc., Logan, UT, cat. SH30070.03HI), 389 ng/mL hydrocortisone (Sigma-Aldrich, cat. H4001), 9.7 ng/mL human EGF recombinant protein (Invitrogen, cat. PHG0313), 23.4 microg/mL adenine (Sigma-Aldrich, cat. A2786), 97.3 U/mL penicillin-streptomycin (Invitrogen, cat. 15140122), 1.9 mM L-glutamine (Invitrogen, cat. 25030081), and 9.7 microM Y-27632 dihydrochloride (Tocris Bioscience, Bristol, United Kingdom, cat. 1254). The PDCs were cultured in complete DMEM/F12 media without 10 microM Y-27632 dihydrochloride for at least two passages prior to the screen. The established cell lines NCI-H1341 and […] were cultured in DMEM/F-12, HEPES (Invitrogen, cat. 11330032), 5% defined fetal bovine serum (HyClone Laboratories Inc., cat. SH30070.03), ITS premix universal culture supplement [insulin (5 microg/mL), transferrin (5 microg/mL), and selenious acid (5 ng/mL)] […]

[1] = second compound 0.1 µM, first compound 0.00316 µM
[2] = second compound 0.1 µM, first compound 0.01 µM
[3] = second compound 0.1 µM, first compound 0.0316 µM
[4] = second compound 0.1 µM, first compound 0.1 µM
[5] = second compound 0.1 µM, first compound 0.316 µM
[6] = second compound 0.1 µM, first compound 1 µM
[7] = second compound 0.316 µM, first compound 0.00316 µM
[8] = second compound 0.316 µM, first compound 0.01 µM
[9] = second compound 0.316 µM, first compound 0.0316 µM
[10] = second compound 0.316 µM, first compound 0.1 µM
[11] = second compound 0.316 µM, first compound 0.316 µM
[12] = second compound 0.316 µM, first compound 1 µM
[13] = second compound 1 µM, first compound 0.00316 µM
[14] = second compound 1 µM, first compound 0.01 µM
[15] = second compound 1 µM, first compound 0.0316 µM
[16] = second compound 1 µM, first compound 0.1 µM
[17] = second compound 1 µM, first compound 0.316 µM
[18] = second compound 1 µM, first compound 1 µM
[19] = second compound 3.16 µM, first compound 0.00316 µM
[20] = second compound 3.16 µM, first compound 0.01 µM
[21] = second compound 3.16 µM, first compound 0.0316 µM
[22] = second compound 3.16 µM, first compound 0.1 µM
[23] = second compound 3.16 µM, first compound 0.316 µM
[24] = second compound 3.16 µM, first compound 1 µM
[25] = second compound 10 µM, first compound 0.00316 µM
[26] = second compound 10 µM, first compound 0.01 µM
[27] = second compound 10 µM, first compound 0.0316 µM
[28] = second compound 10 µM, first compound 0.1 µM
[29] = second compound 10 µM, first compound 0.316 µM
[30] = second compound 10 µM, first compound 1 µM
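Throughout, for viability, T/C: spheroids mix tumor cells with HUVEC endothelium and human MSC stroma; luminescence taken as viability surrogate after a week of drug exposure.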

| Structure (SMILES) | IC50 (second compound 0.1 µM) [nM] | IC50 (second compound 0.316 µM) [nM] | IC50 (second compound 1 µM) [nM] | IC50 (second compound 3.16 µM) [nM] | IC50 (second compound 10 µM) [nM] | viability, T/C [1] [%] | viability, T/C [2] [%] | viability, T/C [3] [%] | viability, T/C [4] [%] | viability, T/C [5] [%] | viability, T/C [6] [%] | viability, T/C [7] [%] | viability, T/C [9] [%] | viability, T/C [10] [%] | viability, T/C [15] [%] | viability, T/C [16] [%] | viability, T/C [21] [%] | viability, T/C [22] [%] | viability, T/C [27] [%] | viability, T/C [28] [%] | also measured |
| --- | --- | --- | --- | --- | --- | --- | --- | --- | --- | --- | --- | --- | --- | --- | --- | --- | --- | --- | --- | --- | --- |
| CC1COCCN1c1cc(-c2ccnn2C)c2ccnc(-c3ccn[nH]3)c2n1 (stereo not given) + Cc1ccccc1N=Nc1ccc(NC(=O)c2ccnn2C)c(C)c1 | 149 | 154 | 152 | 143 | 101 | 128 | 116 | 122 | 66.6 | 19.4 | 17.9 | 122 | 127 | 70 | 109 | 71 | 145 | 66.4 | 108 | 54.5 | viability, T/C [8]: 116%; viability, T/C [11]: 17.9%; viability, T/C [12]: 15.2%; viability, T/C [13]: 123%; viability, T/C [14]: 138%; viability, T/C [17]: 14.2%; viability, T/C [18]: 13.8%; viability, T/C [19]: 144%; viability, T/C [20]: 131%; viability, T/C [23]: 13.4%; viability, T/C [24]: 14.2%; viability, T/C [25]: 134%; viability, T/C [26]: 154%; viability, T/C [29]: 12.4%; viability, T/C [30]: 15.4% |
| CC[C@@]1(O)C(=O)OCc2c1cc1n(c2=O)Cc2cc3c(CN(C)C)c(O)ccc3nc2-1 + Cc1cncc(-c2nc(NCCc3c[nH]c4ccccc34)c3ncn(C(C)C)c3n2)c1 | 54.2 | 43.7 | 43.1 | 58.3 | > 100 | 101 | 76.8 | 72.3 | 28.1 |  |  | 109 | 61.6 | 27.1 | 56.9 | 25.9 | 72.6 | 30.5 | 103 | 38.5 | viability, T/C (second compound 0.1 µM, first compound 0.000316 µM): 95.1%; viability, T/C (second compound 0.1 µM, first compound 0.001 µM): 95.6%; viability, T/C (second compound 0.316 µM, first compound 0.000316 µM): 113%; viability, T/C (second compound 0.316 µM, first compound 0.001 µM): 105%; viability, T/C [8]: 78.8%; viability, T/C (second compound 1 µM, first compound 0.000316 µM): 117%; viability, T/C (second compound 1 µM, first compound 0.001 µM): 133%; viability, T/C [13]: 100%; viability, T/C [14]: 99%; viability, T/C (second compound 3.16 µM, first compound 0.000316 µM): 155%; viability, T/C (second compound 3.16 µM, first compound 0.001 µM): 141%; viability, T/C [19]: 143%; viability, T/C [20]: 111%; viability, T/C (second compound 10 µM, first compound 0.000316 µM): 214%; viability, T/C (second compound 10 µM, first compound 0.001 µM): 158%; viability, T/C [25]: 144%; viability, T/C [26]: 94.5% |
| CC1COCCN1c1cc(C2(S(C)(=N)=O)CC2)nc(-c2ccnc3[nH]ccc23)n1 (stereo not given) + Cc1cncc(-c2nc(NCCc3c[nH]c4ccccc34)c3ncn(C(C)C)c3n2)c1 | 2450 | 2570 | 2590 | 2640 | 2470 |  |  | 115 | 108 | 114 | 107 |  | 125 | 131 | 140 | 138 | 139 | 142 | 130 | 132 | viability, T/C (second compound 0.1 µM, first compound 3.16 µM): 33.8%; viability, T/C (second compound 0.1 µM, first compound 10 µM): 15.5%; viability, T/C [11]: 105%; viability, T/C [12]: 118%; viability, T/C (second compound 0.316 µM, first compound 3.16 µM): 35.1%; viability, T/C (second compound 0.316 µM, first compound 10 µM): 14.4%; viability, T/C [17]: 131%; viability, T/C [18]: 128%; viability, T/C (second compound 1 µM, first compound 3.16 µM): 33.5%; viability, T/C (second compound 1 µM, first compound 10 µM): 15.5%; viability, T/C [23]: 154%; viability, T/C [24]: 128%; viability, T/C (second compound 3.16 µM, first compound 3.16 µM): 35.7%; viability, T/C (second compound 3.16 µM, first compound 10 µM): 14.5%; viability, T/C [29]: 139%; viability, T/C [30]: 111%; viability, T/C (second compound 10 µM, first compound 3.16 µM): 33.9%; viability, T/C (second compound 10 µM, first compound 10 µM): 14.3% |
